“Also recorded” adds a separate entry of the source.
Experiments:
[1] = tested on: Rett syndrome R168X, R270X and R294X nonsense mutations; assay: Readthrough activity in cell-free assay, Rett syndrome nonsense mutations suppression; assay type: biochemical, rabbit; settings: 5 μM, FIGS. 8A-C; for firefly/renilla expression ratio compared with the control, wild type cell extracts: WT
Procedure: (§1) The plasmids were transcribed in vitro and translated using rabbit reticulocytes (TNT mix) and then tested for the expression levels of the firefly and renilla luciferases. WT plasmids expressed both firefly and renilla luciferases while mutant plasmids expressed only the renilla luciferase due to the stop codon found in the inserted sequence. The readthrough assays were conducted for the tested compounds and the controls by adding the compounds to the in vitro transcription/translation reaction mixture. In case the compounds exerted suppression of the premature nonsense/stop codon mutation, the firefly luciferase was expressed and a fold-change in its expression was observed.
FIGS. 8A-C present the results of Rett syndrome R168X (FIG. 8A), R270X (FIG. 8B) and R294X (FIG. 8C) nonsense mutations suppression cell-free assays conducted for six exemplary compounds according to embodiments of the present invention, NB144, NB145, NB146, NB150, NB151 and NB152, at a concentration of 5 μM. As shown therein, when compared with the control (non-treated cell extracts), the wild type cell extracts are unaffected (approx. 100%); however, in all three Rett syndrome mutation models there is a significant impact of the different treatments on the readthrough activity (>>>100%).

[2] = tested on: cystic fibrosis G542X nonsense mutation; assay: Readthrough activity in cell-free assay, cystic fibrosis G542X nonsense mutation suppression dose-response; assay type: biochemical, rabbit; settings: concentration range 0-50 μM; for mutation suppression activity (firefly expression and firefly/renilla expression ratio, G542X mutant sequence): FIGS. 4-7; for protein synthesis inhibitory effect (expression levels up or downstream of the WT sequence): FIGS. 4A, 4C, 4E, 6
Procedure: as §1
Readthrough activity of Cystic Fibrosis (CF) mutation G542X was tested using the compounds presented in Table 1, and the mutation suppression was calculated based on firefly/renilla expression ratio values, and normalized with respect to the expression level of the WT and the control sample (no tested compound).

[3] = tested on: Rett syndrome causing premature stop codon mutations R168X, R270X and R294X; assay type: cell-based, human; settings: offered as explanation of limited readthrough level, 0.3 and 1 mM

## CC(C)CNC1CC(N)[C@@H](O[C@H]2OC([C@@H](C)O)[C@@H](O)C(O)C2N)C(O)[C@@H]1O (stereo in doubt) [NB144]
[1]
  firefly/renilla expression ratio compared with the control, wild type cell extracts: approx. 100%
[2]
  mutation suppression activity (firefly expression and firefly/renilla expression ratio, G542X mutant sequence): notable dose-dependent readthrough activity

## C[C@@H](O)C1O[C@H](O[C@@H]2C(N)CC(NCc3ccccc3)[C@@H](O)C2O)C(N)C(O)[C@@H]1O (stereo in doubt) [NB145]
[1]
  firefly/renilla expression ratio compared with the control, wild type cell extracts: approx. 100%
[2]
  mutation suppression activity (firefly expression and firefly/renilla expression ratio, G542X mutant sequence): notable dose-dependent readthrough activity

## CCCNC1CC(N)[C@@H](O[C@H]2OC([C@@H](C)O)[C@@H](O)C(O)C2N)C(O)[C@@H]1O (stereo in doubt) [NB146]
[1]
  readthrough activity, comparison in words: better activity compared to NB144 and NB145
  firefly/renilla expression ratio compared with the control, wild type cell extracts: approx. 100%
[2]
  mutation suppression activity (firefly expression and firefly/renilla expression ratio, G542X mutant sequence): clearly dose-dependent; also recorded: notable dose-dependent readthrough activity
  protein synthesis inhibitory effect (expression levels up or downstream of the WT sequence): more protein synthesis inhibitory effect

## C[C@@H](O)C1O[C@H](O[C@@H]2C(N)CC(NC(=N)N)[C@@H](O)C2O)C(N)[C@H](O)[C@@H]1O (stereo in doubt) [NB150]
[1]
  firefly/renilla expression ratio compared with the control, wild type cell extracts: approx. 100%
[2]
  mutation suppression activity (firefly expression and firefly/renilla expression ratio, G542X mutant sequence): notable dose-dependent readthrough activity

## C[C@@H](O)C1O[C@H](O[C@@H]2C(N)C[C@@H](N)C(O)C2O[C@@H]2O[C@H](CNC(=N)N)C(O)C2O)C(N)C(O)[C@@H]1O (stereo in doubt) [NB151]
[1]
  firefly/renilla expression ratio compared with the control, wild type cell extracts: approx. 100%
[2]
  mutation suppression activity (firefly expression and firefly/renilla expression ratio, G542X mutant sequence): notable dose-dependent readthrough activity

## C[C@@H](O)C1O[C@H](O[C@@H]2C(N)C[C@@H](NC(=O)C(O)CCN)C(O)C2O[C@@H]2O[C@H](CNC(=N)N)C(O)C2O)C(N)C(O)[C@@H]1O (stereo in doubt) [NB152]
[1]
  readthrough activity, comparison in words: higher activity compared to NB150 and NB151
  firefly/renilla expression ratio compared with the control, wild type cell extracts: approx. 100%
[2]
  mutation suppression activity (firefly expression and firefly/renilla expression ratio, G542X mutant sequence): notable dose-dependent readthrough activity
  protein synthesis inhibitory effect (expression levels up or downstream of the WT sequence): protein synthesis inhibition

## CN[C@@H]1[C@@H](O)[C@@H](O[C@@H]2[C@@H](O)[C@H](O[C@H]3O[C@H]([C@@H](C)O)[C@@H](O)[C@H](O)[C@H]3N)[C@@H](N)C[C@H]2N)OC[C@]1(C)O [Compound G418]
[3]
  cytotoxicity: significant cytotoxicity

From patent US11306115B2, “Aminoglycoside derivatives and uses thereof in treating genetic disorders” (priority 2015, dated 2022)
